Measurements as given in a melting point compilation (Tetko et al.; mined from patent text by program, amines drawn as free bases though some values may be those of a salt).

SMILES | melting point [°C]
CCc1nc(-c2ncn(-c3cccc(O)c3)c2C)no1 | 226 to 227
O=C(NCc1ccc(Cl)c(Cl)c1)c1ccc2n1Cc1ccccc1N(C(=O)CSc1ccc(Br)cc1)C2 | 150
CCOC(=O)Nc1cc(N[C@H](C)C(=O)c2ccccc2)c([N+](=O)[O-])c(N)n1 | 150 to 155
COc1ccc(S(N)(=O)=O)cc1CC(C)=O | 138 to 139
CC(C)(C)c1ccc(-c2ccc3c(-c4ccc(C(C)(C)C)cc4)cc4c5cc(-c6ccc(C(C)(C)C)cc6)ccc5c(-c5ccc(C(C)(C)C)cc5)cc4c3c2)cc1 | 376
CCCCCCCCCCCCCCOc1ccc(OCc2ccccc2)c(C(=O)N(CC(=O)O)CC(=O)O)c1 | 71 to 74
COC1C=C(C)C(=O)CC(C)(C)C1OC(=O)c1ccc([N+](=O)[O-])c([N+](=O)[O-])c1 (stereo not drawn) | 103 to 104
CC(C)C1OC(=Nc2nccs2)c2c1nc1c(C(F)(F)F)cccc1c2O (stereo not drawn) | 246 to 248
CN(CCSc1ccc(C=C2SC(=O)NC2=O)cc1)c1nc2ccccc2o1 | 189
COc1cc2c(N)nc(Cl)nc2c(OC)c1OC | 244 to 245
COc1ccc(C2=NN(C(=O)c3cccc(NC(=O)c4ccc(NC(=O)c5ccc([N+](=O)[O-])cc5)cc4)c3)CCC2)cc1OCCN(C)C | 274
CCOC(=NC#N)N[C@@H]1c2cc(C#N)ccc2OC(C)(C)[C@H]1O (relative stereo) | 193 to 196
CC(C)c1nc(-c2ccccc2)c(-c2ccccc2)c(-c2ccc(F)cc2)c1CO | 169 to 171
CCOC(=O)c1cnn(-c2cccc(Cl)c2)c1N | 115 to 117
COC1(c2ccccc2)N=CC(=O)N(C)c2ccc(Cl)cc21 (stereo not drawn) | 146 to 147
C[C@H]1[C@@H](C(N)=O)CCN1c1ccc(C#N)c2ccccc12 | 204 to 206
COc1ccc(Cl)cc1C1(F)C(=O)Nc2ccc(Br)cc21 (stereo not drawn) | 206 to 208
O=C(NCCCn1ccnc1)Nc1cccc(C(F)(F)F)c1 | 105 to 108
COc1ccc(C(=O)Nc2ccc(F)cc2)cc1N | 164 to 167
CC(Sc1cnn(C(C)(C)C)c(=O)c1Cl)c1ccc(C(C)(C)C)cc1 (single isomer, unassigned; (+)) | 102 to 104
COc1ccc2cc([C@H](C)C(=O)NOCC(=O)O)ccc2c1 | 152 to 153
CCOC(=O)CCc1c(C)nc(CC)n(Cc2ccc(-c3ccccc3-c3nnn[nH]3)cc2)c1=O | 76 to 80
OC[C@H]1OC[C@@H](n2cnc3cc(Cl)c(Cl)cc32)[C@H](O)[C@@H]1O | 160 to 162

SMILES | melting point [°C]
O=C(CCCl)c1ccc(O)c(Cl)c1Cl | 109 to 111
NC(=O)OCc1cc2c(Oc3ccc(Cl)cc3)cncc2s1 | 113 to 115
CC1(O)CC(C)(C)c2ccc(Oc3ccc([N+](=O)[O-])cc3)cc2O1 (stereo not drawn) | 159 to 160
O=[N+]([O-])c1ccc(-c2cc(C(F)(F)C(F)(F)C(F)(F)F)nc(-c3ccc(C(F)(F)F)cc3)n2)cc1 | 191
O=C(O)[C@H](Cc1ccc(C(F)(F)F)cc1)[C@@H](O)c1ccc(F)c(F)c1 (racemic) | 76 to 77
CCn1c(-c2ccc(OC)c(OC)c2)cc(=O)n(C)c1=O | 110 to 120
O=C(O)c1ccc(Cl)cc1Nc1cccc(Br)c1 | 205 to 207
O=C(CCCCCl)c1cccc2cc3c(C(=O)CCCCCl)cccc3cc12 | 146 to 148
OC(Cn1cncn1)(Cn1cnc(C=Cc2ccc(C(F)(F)F)cc2)n1)c1ccc(OC(F)(F)F)cc1 (stereo not drawn) | 193 to 195
CCc1nc(N)nc(N)c1-c1cccc(Cl)c1Cl | 228 to 230
CCCCCCCN(CCCCCSc1nc2ncccc2[nH]1)C(=O)NC(C)C | 101 to 102
O=c1c2cccnc2c(-c2cccc(Cl)c2)nn1Cc1ccsc1 | 165 to 166
O=[N+]([O-])c1cc(C(F)(F)F)ccc1-c1ccno1 | 62 to 63
CC(C)(C)C(O)(Cn1cncn1)C(Br)=C(Cl)Br (stereo not drawn) | 78 to 81
O=C(c1ccccc1Cl)c1ccccc1I | 62 to 64
CCCCCCCCCCCCCCOc1ccc(CCNC(=O)Cc2cccc(CBr)c2)cc1 | 75 to 77
COC(=O)c1ccc(OCCNC(=O)C2Cc3ccccc3N2S(=O)(=O)c2ccc(-c3ccc(F)cc3)cc2)cc1Cl (stereo not drawn) | 70 to 79
O=c1nc(-c2cccc(Cl)c2)c2cc(C(c3ccc(Cl)cc3)n3ccnc3)ccc2n1Cc1ccncc1 (stereo not drawn) | 61.4
CCN1CCN(c2nc(-c3ccc(OC)cc3)nc3sc(C#N)c(C)c23)CC1 | 173 to 175
Cn1nnnc1SCCCCCCCCSc1nnnn1C | 52 to 54
CCN(C(=O)C(C)CSC)c1sc(-c2cccnc2)nc1Cl (stereo not drawn) | 79 to 81
O=C(NCCO)/C(=C/c1ccc(OC(F)(F)F)cc1)NC(=O)c1ccc(Oc2ccc(C(F)(F)F)cc2)cc1 | 84 to 86
COC(=O)c1ccc(-c2nc(-c3ccccc3C(F)(F)F)cs2)cc1 | 122 to 123

SMILES | melting point [°C]
CCCCCCC(C(=O)O)n1cnc2c(NC(=O)c3ccccc3-c3nn[nH]n3)cccc21 (stereo not drawn) | 130 to 134
COc1ccc(-c2nc(N3CCOCC3)sc2-c2ccc(OC)cc2)cc1 | 133 to 135
O=C(NCCc1ncc(Cl)cc1Cl)c1ccccc1I | 133
Clc1cccc(Nc2ncc3cc4ccccc4n3n2)c1 | 174 to 176
Cn1cc(C(=O)NCc2ccc(Cl)cc2)c(=O)c2cc(CCCCCO)oc21 | 151 to 152
COc1cc(C2(C=O)C=CC=CC2)ccc1OCCCBr (stereo not drawn) | 88 to 89
CC(C)N1C(=O)NC(c2ccccc2)c2cc3c(cc21)OCO3 (stereo not drawn) | 165 to 168
c1ccc(-c2cc(-n3ccc4ccccc43)c3ccccc3n2)cc1 | 100 to 102
CCCC(=O)Nc1c(Br)cc(C(=O)OCC)cc1CN(CC)CC | 134
Cc1nn(-c2cncc(F)c2)cc1[N+](=O)[O-] | 90 to 92
COc1cccc2sc(-c3ccc(C(C)(C)C)cc3)nc12 | 90 to 91
O=[N+]([O-])c1cc(C(O)CN2CCN(C(c3ccccc3)c3ccccc3)CC2)ccc1Cl (stereo not drawn) | 163
CCCNC(=O)N(CCC(=O)OC)CC1CC2c3cccc4[nH]cc(c34)CC2N(C)C1 (stereo not drawn) | 130 to 132
CCOC(=O)Cn1c(CC)nc2nc3cc(Cl)ccc3nc21 | 174 to 175
CCC1(CBr)Cc2cc(OC)c3c(c2C(c2ccccc2)=N1)CC(CC)(CC)O3 (stereo not drawn) | 108 to 110
COc1ccc2c(c1)CCC(c1ccncc1)O2 (stereo not drawn) | 88 to 91
Clc1nc(Cl)nc(-c2ccccc2)n1 | 118 to 120
C#CCCCCCCOC(=O)COc1ccc(F)c(C(N)=O)c1F | 130 to 132
O=C1NCCn2c1c(-c1ccccc1)c1ccccc1c2=O | > 300
Cc1ccc(OC2SCC(O)C(O)C2O)c(F)n1 (stereo not drawn) | 167 to 170
CNc1nc(Nc2ccc(Cl)c(CNS(C)(=O)=O)c2)ncc1[N+](=O)[O-] | 250
CNc1nc(NC)c2ncn(COC(CO)CO)c2n1 | 198
O=C(CCC(Cl)(Cl)Cl)Nc1cccc(-c2ccnc3c(C(=O)c4cccs4)cnn23)c1 | 189 to 191

Other lines, results leading:

melting point [°C] | SMILES
181 to 183 | COc1ccc(NC(=S)N2CCc3cc(S(=O)(=O)N4CC(c5ccccc5)NC4=O)ccc32)cc1 (stereo not drawn)
241 to 247 | CC12CC(O)CC1C1CCc3cc(O)ccc3C1C(c1ccccc1)C2 (stereo not drawn)
203 to 205 | COC(=O)C1=C(C)NC(C)=C(NC(=O)Nc2ccccc2)C1c1ccccc1Cl (stereo not drawn)
224 to 225 | CN(c1cccc2cc(C3=NCC4(CCC5(CC4)OCCO5)S3)[nH]c12)S(=O)(=O)c1cccs1
75 to 76 | CCOC(=O)c1cnc2sc3c(n12)CCCC3
48 to 54 | Nc1ccccc1CNC1CCC(=O)NC1=O (stereo not drawn)
234 to 235 | O=C1CSC(C(=O)O)Cc2cc3c(cc21)OCO3 (stereo not drawn)
> 260 | O=C(C1CCCCC1)N1CC(=NO)NC(=NO)C1
220 to 221 | NC(=O)c1ccc(N2CCOCC2)cc1
160 to 162 | CCCCCCCCC1C=CC(/C=C(\C)c2ccc(C(=O)O)o2)=C2N=C3CCCCC3=C21 (stereo not drawn)
132 | CC(C)CNC(=O)c1ccc(C2(F)CC2c2ccc(Br)c(Br)c2)cc1 (stereo not drawn)
224 to 226 | Nc1ccn([C@H]2C=C[C@@H](O)CC2)c(=O)n1 (racemic)
173 to 174 | COc1nc(C)c(C(C)=O)cc1NC(=O)N1CCN(c2cccc(C)c2C)CC1
151 to 154 | CON=C(C(=O)O)c1nc(NC=O)ccc1Cl
130 to 132 | CCc1nc2c(cnn2CC)c(NC2CCOCC2)c1CNC(=O)c1cc(C)cc(C(=O)NCc2cccc(-c3cccc(CC4CCNCC4)c3)c2)c1
230 to 232 | Cc1ccc(-c2cc(N3CCCCC3)c(C#N)c3c2-c2ccccc2C3=O)cc1
> 275 | Oc1nc2c(Cl)nc3ccccc3c2n1CC1CCOCC1
76 | O=C(O)N1CCN(C(=O)c2cccs2)CC1
137 | CCOC(=O)C1=C(N=CN(C)C)NC(C)=C(C(=O)OC)C1c1ccccc1Cl (stereo not drawn)
117 to 119 | COc1ccc2c(Cl)nc(C(=O)NCCO)c(O)c2c1
104 to 105 | COc1cc(C2CCCCC2)ccc1CCCC(=O)O
216 to 217 | O=C(NC1CCN(CCc2ccccc2)CC1)C1=Cc2cnc3cccc(n23)S1
37 to 38 | CCOc1cc(C(=O)CCCC2CCCCC2)c(OC)cc1C
236 | CC1CCCN(CC(C)N2c3ccccc3Sc3ccc(C(N)=S)cc32)C1 (mixture of isomers)
165 to 166 | OC1CSC(Oc2cccc(-c3cccs3)c2)C(O)C1O (stereo not drawn)
274 to 276 | NS(=O)(=O)c1cc2c(cc1Cl)NC(C1CCCCC1)NS2(=O)=O (stereo not drawn)
150 to 160 | Nc1nc2c(s1)CCNCC2
152 to 154 | COc1ccc2c(c1)CCNC(=O)C2
212 to 215 | CC(=O)C1CCC2C3CCC4CC(O)C(N5CC(C)(C)OC(C)(C)C5)CC4(C)C3C(=O)CC12C (stereo not drawn)
